By AUC(0-t) is commonly meant exposure summed from dosing to a finite time, without extrapolation to infinity. As a reminder, the AUC(0-inf) is total exposure, with the tail of the curve extrapolated. A word on the Cmax: it is the maximum level reached in the sampled fluid or tissue. One may read the Tmax as the time at which the peak concentration occurs. Broadly, the half-life is the time needed for the level to fall by half in the phase considered.

Here are results for five compounds from PMC7192969 (Journal of Pharmaceutical Analysis, 2019).

Data set [1] has as its system SD rats. The experiment in a line: Freund's adjuvant induced hind paw edema, anti-inflammatory effect. The format is in vivo, rat.
The nature of data set [2]: Pharmacokinetics of aconitine in plasma after oral administration. It is filed as in vivo. Conditions: male, Sprague-Dawley, rat, 1 mg/kg; for half-life: t1/2z.
Where [3] appears, read: 0 h, 10 mg/kg oral in combination with aconitine 1 mg/kg.
[4] abbreviates: 1 h, 10 mg/kg oral in combination with aconitine 1 mg/kg.
The mark [5] stands for this setting: 2 h, 10 mg/kg oral in combination with aconitine 1 mg/kg.
Where [6] appears, read: 4 h, 10 mg/kg oral in combination with aconitine 1 mg/kg.
Where [7] appears, read: 6 h, 10 mg/kg oral in combination with aconitine 1 mg/kg.
Where [8] appears, read: Group A: aconitine at 1 mg/kg oral, alone.
Where [9] appears, read: Group B: aconitine at 1 mg/kg + liquiritin at 10 mg/kg oral.
Setting [10] is: Group D: aconitine at 1 mg/kg + glycyrrhizic acid at 10 mg/kg oral.
The mark [11] stands for this setting: Group E: aconitine at 1 mg/kg + glycyrrhetinic acid at 10 mg/kg oral.

On to `COc1ccc2c(c1)c(CC(=O)O)c(C)n2C(=O)c1ccc(Cl)cc1` [Indomethacin, reference compound], for which the hind paw volume is listed as 1.67 ± 0.09 mL in data set [1] (0 h, 1 mg/kg oral, alone); 2.00 ± 0.11 mL in data set [1] (1 h, 1 mg/kg oral, alone); 2.04 ± 0.15 mL in data set [1] (2 h, 1 mg/kg oral, alone); 2.15 ± 0.10∗ mL in data set [1] (4 h, 1 mg/kg oral, alone); 2.19 ± 0.18∗ mL in data set [1] (6 h, 1 mg/kg oral, alone).

Regarding `CC1(C)[C@@H](O[C@H]2O[C@H](C(=O)O)[C@@H](O)[C@H](O)[C@H]2O[C@@H]2O[C@H](C(=O)O)[C@@H](O)[C@H](O)[C@H]2O)CC[C@]2(C)[C@H]3C(=O)C=C4[C@@H]5C[C@@](C)(C(=O)O)CC[C@]5(C)CC[C@@]4(C)[C@]3(C)CC[C@@H]12` [Glycyrrhizic acid, glycyrrhizic acid], the hind paw volume in data set [1] (setting [3]) is given as 1.72 ± 0.03 mL; in data set [1] (setting [4]) it was 1.92 ± 0.05∗ mL; in data set [1] (setting [5]), 1.96 ± 0.09∗ mL; in data set [1] (setting [6]), 1.99 ± 0.11∗ mL; in data set [1] (setting [7]), 2.14 ± 0.08∗ mL.

For `CCN1C[C@]2(COC)[C@H](O)C[C@H](OC)[C@@]34[C@@H]5C[C@@]6(O)[C@H](OC(=O)c7ccccc7)[C@@H]5[C@@](OC(C)=O)([C@@H]([C@H](OC)[C@H]23)[C@@H]14)[C@@H](O)[C@@H]6OC` [Aconitine, aconitine], the hind paw volume in data set [1] (0 h, 1 mg/kg oral, alone) is recorded as 1.70 ± 0.06 mL; in data set [1] (1 h, 1 mg/kg oral, alone), 1.87 ± 0.10∗ mL; in data set [1] (2 h, 1 mg/kg oral, alone), 1.99 ± 0.15 mL; in data set [1] (4 h, 1 mg/kg oral, alone) it was 2.02 ± 0.12∗ mL; in data set [1] (6 h, 1 mg/kg oral, alone), 2.19 ± 0.05∗ mL. Further, the area under the curve AUC(0-t) in data set [2] is 33.7 ± 7.47 ng·h/mL; in data set [2] (setting [8]), 25.8 ± 4.36 ng·h/mL; in data set [2] (setting [9]), 30 ± 6.63 ng·h/mL; in data set [2] (setting [10]) it was 29.1 ± 4.44 ng·h/mL; in data set [2] (setting [11]), 19.9 ± 3.61 ng·h/mL. Further, the AUC(0-inf) in data set [2] was 34.5 ± 7.07 ng·h/mL; in data set [2] (setting [8]), 29.1 ± 6.15 ng·h/mL; in data set [2] (setting [9]), 31.9 ± 5.6 ng·h/mL; in data set [2] (setting [10]), 33.6 ± 6.93 ng·h/mL; in data set [2] (setting [11]) it was 20.7 ± 3.55 ng·h/mL. In addition, the Cmax in data set [2] was 9.19 ± 1.38 ng/mL; in data set [2] (setting [8]), 4.8 ± 0.966 ng/mL; in data set [2] (setting [9]), 5.77 ± 0.831 ng/mL; in data set [2] (setting [10]), 5.73 ± 0.7 ng/mL; in data set [2] (setting [11]) it was 5.88 ± 0.73 ng/mL. Also, the Tmax turned out to be 0.667 ± 0.258 h in data set [2]; 1.08 ± 0.376 h in data set [2] (setting [8]); 1.67 ± 0.408 h in data set [2] (setting [9]); 1.42 ± 0.585 h in data set [2] (setting [10]); 0.833 ± 0.258 h in data set [2] (setting [11]). In addition, the half-life was 2.19 ± 0.249 h in data set [2]; 3.87 ± 1.02 h in data set [2] (setting [8]); 3.26 ± 1.48 h in data set [2] (setting [9]); 3.48 ± 1.06 h in data set [2] (setting [10]); 1.9 ± 0.423 h in data set [2] (setting [11]).

On to `O=C1C[C@@H](c2ccc(O[C@@H]3O[C@H](CO)[C@@H](O)[C@H](O)[C@H]3O)cc2)Oc2cc(O)ccc21` [Liquiritin, liquiritin], for which the hind paw volume is listed as 1.70 ± 0.05 mL in data set [1] (setting [3]); 1.78 ± 0.12∗ mL in data set [1] (setting [4]); 1.81 ± 0.10∗# mL in data set [1] (setting [5]); 1.83 ± 0.09∗# mL in data set [1] (setting [6]); 1.96 ± 0.14∗# mL in data set [1] (setting [7]).

`CC1(C)[C@@H](O)CC[C@]2(C)[C@H]3C(=O)C=C4[C@@H]5C[C@@](C)(C(=O)O)CC[C@]5(C)CC[C@@]4(C)[C@]3(C)CC[C@@H]12` [Glycyrrhetinic acid, glycyrrhetinic acid]: the hind paw volume in data set [1] (setting [3]) is 1.71 ± 0.05 mL; in data set [1] (setting [4]), 1.80 ± 0.02∗# mL; in data set [1] (setting [5]), 1.79 ± 0.03∗# mL; in data set [1] (setting [6]) it was 1.91 ± 0.09∗ mL; in data set [1] (setting [7]), 2.10 ± 0.06∗# mL.
